Assays:
Type in all cases: in vivo
Kochia (Kochia scoparia) [1] = assay: Test A preemergence; settings: Bassia scoparia, pre-emergence, 240 h, Preemergence
Method in brief: (§1)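 Visual injury, scored on a 0–100 scale relative to untreated controls, was recorded about 10 d after application. Treatments were a preemergence soil spray over planted seeds or a postemergence spray on plants at the one- to two-leaf stage, 2 to 10 cm tall, all in loam soil–sand blend in the greenhouse.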

[2] = tested on: barnyardgrass (Echinochloa crus-galli); assay: Test A preemergence; settings: Echinochloa crus-galli, pre-emergence, 240 h, Preemergence
Method in brief: as §1

[3] = tested on: giant foxtail (Setaria faberii); assay: Test A preemergence; settings: Setaria faberi, pre-emergence, 240 h, Preemergence
Method in brief: as §1

[4] = tested on: pigweed (Amaranthus retroflexus); assay: Test A preemergence; settings: Amaranthus retroflexus, pre-emergence, 240 h, Preemergence
[5] = tested on: ragweed (common ragweed, Ambrosia elatior); assay: Test A preemergence; settings: Ambrosia artemisiifolia, pre-emergence, 240 h, Preemergence
Method in brief: as §1

[6] = tested on: ryegrass, Italian (Italian ryegrass, Lolium multiflorum); assay: Test A preemergence; settings: Lolium multiflorum, pre-emergence, 240 h, Preemergence
Method in brief: as §1

[7] = tested on: Galium (catchweed bedstraw, Galium aparine); assay: Test A postemergence; settings: Galium, post-emergence, 240 h, Postemergence, read-out: Plant response rating, Galium
Method in brief: as §1

Kochia (Kochia scoparia) [8] = assay: Test A postemergence; settings: Bassia scoparia, post-emergence, 240 h, Postemergence, read-out: Plant response rating, Kochia
Method in brief: as §1

[9] = tested on: barnyardgrass (Echinochloa crus-galli); assay: Test A postemergence; settings: Echinochloa crus-galli, post-emergence, 240 h, Postemergence, read-out: Plant response rating, Barnyardgrass
Method in brief: as §1

[10] = tested on: blackgrass (Alopecurus myosuroides); assay: Test A postemergence; settings: Alopecurus myosuroides, post-emergence, 240 h, Postemergence, read-out: Plant response rating, Blackgrass
Method in brief: as §1

corn (Zea mays) = assay: Test A postemergence; settings: Zea mays, post-emergence, 240 h, Postemergence
Method in brief: as §1

[11] = tested on: giant foxtail (Setaria faberii); assay: Test A postemergence; settings: Setaria faberi, post-emergence, 240 h, Postemergence, read-out: Plant response rating, Foxtail, Giant
Method in brief: as §1

[12] = tested on: pigweed (Amaranthus retroflexus); assay: Test A postemergence; settings: Amaranthus retroflexus, post-emergence, 240 h, Postemergence, read-out: Plant response rating, Pigweed
Method in brief: as §1

[13] = tested on: ragweed (common ragweed, Ambrosia elatior); assay: Test A postemergence; settings: Ambrosia artemisiifolia, post-emergence, 240 h, Postemergence, read-out: Plant response rating, Ragweed
Method in brief: as §1

[14] = tested on: ryegrass, Italian (Italian ryegrass, Lolium multiflorum); assay: Test A postemergence; settings: Lolium multiflorum, post-emergence, 240 h, Postemergence, read-out: Plant response rating, Ryegrass, Italian
Method in brief: as §1

[15] = tested on: wheat (Triticum aestivum); assay: Test A postemergence; settings: Triticum aestivum, post-emergence, 240 h, Postemergence, read-out: Plant response rating, Wheat
Method in brief: as §1

[16] = tested on: barnyardgrass (Echinochloa crus-galli); assay: Test B flooded paddy test; settings: Echinochloa crus-galli, Flood, 250 g ai/ha; scale of 0 to 100 where 0 is no effect and 100 is complete control; read-out: Barnyardgrass plant response rating
Method in brief: (§2)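 Percent control, visually estimated after 13–15 d in the greenhouse on a 0–100 basis, compares treated pots with untreated ones; compound was put into paddy water 3 cm above the soil when plants had two leaves.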

[17] = tested on: ducksalad (Heteranthera limosa); assay: Test B flooded paddy test; settings: Heteranthera limosa, Flood, 250 g ai/ha; scale of 0 to 100 where 0 is no effect and 100 is complete control; read-out: Ducksalad plant response rating
Method in brief: as §2

rice (Oryra sativa) = assay: Test B flooded paddy test; settings: Oryza sativa, Flood, 250 g ai/ha; scale of 0 to 100 where 0 is no effect and 100 is complete control; read-out: Rice plant response rating
Method in brief: as §2

[18] = tested on: sedge, umbrella (small-flower umbrella sedge, Cyperus difformis); assay: Test B flooded paddy test; settings: Cyperus difformis, Flood, 250 g ai/ha; scale of 0 to 100 where 0 is no effect and 100 is complete control; read-out: Sedge, Umbrella plant response rating
Method in brief: as §2

[19] = 125 g ai/ha, visual injury after approximately 10 d, 0 to 100 scale where 0 is no effect and 100 is complete control
[20] = 31 g ai/ha, visual injury after approx. 10 d, 0 to 100 scale, 0 no effect, 100 complete control

CC(C)Oc1cc([C@H]2CN(C)C(=O)[C@@H]2C(=O)Nc2cccc(F)c2F)cc(C(F)(F)F)c1 [Compound 972]
pest or weed control at 125 g/ha (Kochia (Kochia scoparia) [1]; 125 g ai/ha, visual injury rating after approximately 10 d, read-out: Kochia plant response rating (0 to 100 scale, 0 is no effect, 100 is complete control)): 0%
pest or weed control at 31 g/ha (Kochia (Kochia scoparia) [1]; 31 g ai/ha, 0 to 100 scale (0 no effect, 100 complete control), read-out: Plant response rating, Kochia): 0%
pest or weed control at 125 g/ha ([2]; 125 g ai/ha, visual injury rating after approximately 10 d, read-out: Barnyardgrass plant response rating (0 to 100 scale, 0 is no effect, 100 is complete control)): 80%
pest or weed control at 31 g/ha ([2]; 31 g ai/ha, 0 to 100 scale (0 no effect, 100 complete control), read-out: Plant response rating, Barnyardgrass): 70%
pest or weed control at 125 g/ha ([3]; 125 g ai/ha, visual injury rating after approximately 10 d, read-out: Foxtail, Giant plant response rating (0 to 100 scale, 0 is no effect, 100 is complete control)): 80%
pest or weed control at 31 g/ha ([3]; 31 g ai/ha, 0 to 100 scale (0 no effect, 100 complete control), read-out: Plant response rating, Foxtail, Giant): 80%
pest or weed control at 125 g/ha ([4]; 125 g ai/ha, visual injury rating after approximately 10 d, read-out: Pigweed plant response rating (0 to 100 scale, 0 is no effect, 100 is complete control)): 0%
pest or weed control at 31 g/ha ([4]; 31 g ai/ha, 0 to 100 scale (0 no effect, 100 complete control), read-out: Plant response rating, Pigweed): 0%
pest or weed control at 125 g/ha ([5]; 125 g ai/ha, visual injury rating after approximately 10 d, read-out: Ragweed plant response rating (0 to 100 scale, 0 is no effect, 100 is complete control)): 20%
pest or weed control at 31 g/ha ([5]; 31 g ai/ha, 0 to 100 scale (0 no effect, 100 complete control), read-out: Plant response rating, Ragweed): 0%
pest or weed control at 125 g/ha ([6]; 125 g ai/ha, visual injury rating after approximately 10 d, read-out: Ryegrass, Italian plant response rating (0 to 100 scale, 0 is no effect, 100 is complete control)): 90%
pest or weed control at 31 g/ha ([6]; 31 g ai/ha, 0 to 100 scale (0 no effect, 100 complete control), read-out: Plant response rating, Ryegrass, Italian): 50%
pest or weed control at 125 g/ha [7, 19]: 30%
pest or weed control at 31 g/ha [7, 20]: 0%
pest or weed control at 125 g/ha (Kochia (Kochia scoparia) [8]; [19]): 0%
pest or weed control at 31 g/ha (Kochia (Kochia scoparia) [8]; [20]): 0%
pest or weed control at 125 g/ha [9, 19]: 50%
pest or weed control at 31 g/ha [9, 20]: 50%
pest or weed control at 125 g/ha [10, 19]: 0%
pest or weed control at 31 g/ha [10, 20]: 0%
Corn plant response rating (crop injury, 0 = no effect, 100 = complete kill) at 125 g/ha (corn (Zea mays); [19]): 60%
Corn plant response rating (crop injury, 0 = no effect, 100 = complete kill) at 31 g/ha (corn (Zea mays); [20]): 20%
pest or weed control at 125 g/ha [11, 19]: 60%
pest or weed control at 31 g/ha [11, 20]: 30%
pest or weed control at 125 g/ha [12, 19]: 30%
pest or weed control at 31 g/ha [12, 20]: 20%
pest or weed control at 125 g/ha [13, 19]: 30%
pest or weed control at 31 g/ha [13, 20]: 0%
pest or weed control at 125 g/ha [14, 19]: 20%
pest or weed control at 31 g/ha [14, 20]: 0%
plant injury at 125 g/ha [15, 19]: 40%
plant injury at 31 g/ha [15, 20]: 20%
pest or weed control at 250 g/ha [16]: 80%
pest or weed control at 250 g/ha [17]: 85%
pest or weed control at 250 g/ha (rice (Oryra sativa)): 50%
pest or weed control at 250 g/ha [18]: 0%
